This is an account of results in patent publication US20230117470A1, “SUBSTITUTED PYRAZOLE COMPOUNDS AS TOLL RECEPTOR INHIBITORS” (BRISTOL-MYERS SQUIBB COMPANY, priority 2019, published 2023).

Common to all, as to format: cell-based
The target of one assay is T1, human TLR7 (Homo sapiens, UniProt Q9NYK1).
T1 construct: host or cells: HEK-Blue cells
T1 sequence (Q9NYK1 27-1049): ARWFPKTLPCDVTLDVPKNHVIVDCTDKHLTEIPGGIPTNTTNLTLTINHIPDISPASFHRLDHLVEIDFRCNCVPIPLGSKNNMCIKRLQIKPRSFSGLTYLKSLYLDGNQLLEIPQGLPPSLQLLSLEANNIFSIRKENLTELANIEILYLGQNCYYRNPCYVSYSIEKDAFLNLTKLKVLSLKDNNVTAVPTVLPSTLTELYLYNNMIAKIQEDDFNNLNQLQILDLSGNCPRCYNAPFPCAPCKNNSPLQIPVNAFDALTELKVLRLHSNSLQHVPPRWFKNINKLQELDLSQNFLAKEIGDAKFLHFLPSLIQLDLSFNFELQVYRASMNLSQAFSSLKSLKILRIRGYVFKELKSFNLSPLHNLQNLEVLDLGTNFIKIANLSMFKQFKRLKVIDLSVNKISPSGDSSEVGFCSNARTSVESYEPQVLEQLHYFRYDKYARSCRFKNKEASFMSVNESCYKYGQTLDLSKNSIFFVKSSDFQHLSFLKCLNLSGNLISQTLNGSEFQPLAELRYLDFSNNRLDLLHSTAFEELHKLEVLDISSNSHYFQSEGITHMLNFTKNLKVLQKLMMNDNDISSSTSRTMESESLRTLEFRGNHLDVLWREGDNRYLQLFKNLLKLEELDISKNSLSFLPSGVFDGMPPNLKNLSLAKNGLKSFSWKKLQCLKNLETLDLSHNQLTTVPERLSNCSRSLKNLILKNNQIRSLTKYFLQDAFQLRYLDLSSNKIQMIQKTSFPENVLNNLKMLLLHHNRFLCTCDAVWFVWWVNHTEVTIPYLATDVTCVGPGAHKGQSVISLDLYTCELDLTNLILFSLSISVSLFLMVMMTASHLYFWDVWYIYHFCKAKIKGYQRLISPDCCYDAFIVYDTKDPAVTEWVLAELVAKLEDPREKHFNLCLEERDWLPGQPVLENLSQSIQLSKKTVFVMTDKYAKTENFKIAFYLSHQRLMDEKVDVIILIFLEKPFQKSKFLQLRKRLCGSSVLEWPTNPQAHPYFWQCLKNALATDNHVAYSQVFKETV
The assay is described as follows: TLR7 inhibition reporter assay (HEK-Blue cells, SEAP reporter, gardiquimod stimulation). The conditions noted are these: HEK-Blue cells overexpressing human TLR7, SEAP reporter, gardiquimod 7.5 μM. Put shortly:
(§1)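 Cells were pre-treated 30 min at room temperature with compound (final 0.05 nM–50 μM), then stimulated with gardiquimod 7.5 μM (TLR7), R848 15.9 μM (TLR8) or ODN2006 5 nM (TLR9). SEAP was read after 22 h at 37° C; percent inhibition scaled between agonist+DMSO and known-inhibitor wells.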
(In general: In a reporter assay the amount or activity of a reporter protein is the signal.)

The next assay deals with T2, human TLR8 (Homo sapiens, UniProt Q9NR97).
T2 construct: host or cells: HEK-Blue cells
T2 sequence (Q9NR97 27-1041): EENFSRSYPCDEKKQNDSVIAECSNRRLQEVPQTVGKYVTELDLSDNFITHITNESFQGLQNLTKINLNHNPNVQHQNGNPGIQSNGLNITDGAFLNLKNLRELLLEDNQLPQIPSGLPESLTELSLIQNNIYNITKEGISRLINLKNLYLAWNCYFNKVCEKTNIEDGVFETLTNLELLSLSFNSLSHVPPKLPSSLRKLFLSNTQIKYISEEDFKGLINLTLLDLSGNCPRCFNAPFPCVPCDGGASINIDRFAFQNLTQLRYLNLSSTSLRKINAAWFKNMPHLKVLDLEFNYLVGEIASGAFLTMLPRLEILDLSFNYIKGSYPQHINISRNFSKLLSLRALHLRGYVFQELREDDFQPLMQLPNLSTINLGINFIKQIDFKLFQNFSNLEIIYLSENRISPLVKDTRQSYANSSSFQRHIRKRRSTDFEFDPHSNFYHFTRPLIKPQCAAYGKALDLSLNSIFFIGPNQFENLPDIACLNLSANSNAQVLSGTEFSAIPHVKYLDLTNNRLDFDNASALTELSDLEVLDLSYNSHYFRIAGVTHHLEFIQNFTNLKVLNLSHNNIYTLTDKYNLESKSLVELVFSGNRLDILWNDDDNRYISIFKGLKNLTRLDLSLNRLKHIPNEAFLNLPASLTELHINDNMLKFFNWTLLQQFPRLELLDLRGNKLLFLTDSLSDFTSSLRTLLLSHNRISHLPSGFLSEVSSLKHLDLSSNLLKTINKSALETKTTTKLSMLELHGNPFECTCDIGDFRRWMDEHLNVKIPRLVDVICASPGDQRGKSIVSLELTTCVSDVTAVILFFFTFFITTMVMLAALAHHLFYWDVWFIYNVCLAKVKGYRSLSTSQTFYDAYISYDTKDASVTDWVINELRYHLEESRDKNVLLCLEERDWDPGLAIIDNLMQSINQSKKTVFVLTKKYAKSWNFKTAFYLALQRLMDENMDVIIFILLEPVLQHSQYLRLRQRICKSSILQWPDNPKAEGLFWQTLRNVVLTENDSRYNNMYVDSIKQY
The assay is described as follows: TLR8 inhibition reporter assay (HEK-Blue cells, SEAP reporter, R848 stimulation). The conditions noted are these: HEK-Blue cells overexpressing human TLR8, SEAP reporter, R848 15.9 μM. Put shortly: as §1

Another assay concerns the target T3, human TLR9 (Homo sapiens, UniProt Q9NR96).
T3 construct: host or cells: HEK-Blue cells
T3 sequence (Q9NR96 26-1032): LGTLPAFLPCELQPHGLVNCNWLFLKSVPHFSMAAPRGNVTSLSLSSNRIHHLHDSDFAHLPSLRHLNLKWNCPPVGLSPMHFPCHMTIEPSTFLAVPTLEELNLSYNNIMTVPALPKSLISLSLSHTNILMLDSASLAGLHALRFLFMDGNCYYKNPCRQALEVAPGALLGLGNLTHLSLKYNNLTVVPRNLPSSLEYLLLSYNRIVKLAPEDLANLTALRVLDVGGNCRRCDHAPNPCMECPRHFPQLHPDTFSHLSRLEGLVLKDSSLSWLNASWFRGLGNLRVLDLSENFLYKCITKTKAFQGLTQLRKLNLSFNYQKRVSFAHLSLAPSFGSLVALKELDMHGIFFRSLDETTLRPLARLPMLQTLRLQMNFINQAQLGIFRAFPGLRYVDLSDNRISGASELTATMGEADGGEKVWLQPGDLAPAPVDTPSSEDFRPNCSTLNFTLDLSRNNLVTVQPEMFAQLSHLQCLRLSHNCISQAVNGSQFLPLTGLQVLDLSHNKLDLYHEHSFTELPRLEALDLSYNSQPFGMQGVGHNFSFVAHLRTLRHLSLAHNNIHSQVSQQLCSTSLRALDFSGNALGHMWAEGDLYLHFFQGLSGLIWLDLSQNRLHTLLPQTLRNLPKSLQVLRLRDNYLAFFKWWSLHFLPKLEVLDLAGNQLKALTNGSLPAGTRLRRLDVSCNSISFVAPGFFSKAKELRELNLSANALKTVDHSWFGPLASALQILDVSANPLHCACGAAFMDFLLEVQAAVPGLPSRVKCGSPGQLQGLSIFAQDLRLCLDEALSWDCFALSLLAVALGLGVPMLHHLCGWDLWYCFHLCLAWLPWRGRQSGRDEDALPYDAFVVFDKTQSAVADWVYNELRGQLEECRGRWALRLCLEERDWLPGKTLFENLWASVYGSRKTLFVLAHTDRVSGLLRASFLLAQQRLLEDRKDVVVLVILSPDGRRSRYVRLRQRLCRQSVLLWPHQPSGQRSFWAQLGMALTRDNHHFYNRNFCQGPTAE
The assay is described as follows: TLR9 inhibition reporter assay (HEK-Blue cells, SEAP reporter, ODN2006 stimulation). The conditions noted are these: HEK-Blue cells overexpressing human TLR9, SEAP reporter, ODN2006 5 nM. Put shortly:
as §1

In general, IC50 refers to the concentration that gives 50% inhibition. Low values mean greater potency, high ones weaker potency.

On to `CCN1CCC(c2cnc(-c3n[nH]c(-c4cc(C)c5ncnn5c4)c3C(C)C)nc2)CC1` [Example 369], for which the half-maximal inhibitory concentration (IC50) was found to be 18 nM against human TLR7, 33 nM at human TLR8 and 46900 nM on human TLR9.
For the molecule `Cc1cc(-c2[nH]nc(-c3ncc(C4CCN(C(C)C)CC4)cn3)c2C(C)C)cn2ncnc12` [Example 370], the results for the half-inhibitory concentration (IC50) at human TLR7, at human TLR8 and on human TLR9 were 12.4 nM, 1.38 nM and 6440 nM, respectively.
For `Cc1cc(-c2[nH]nc(-c3ncc(C4CCN(CC(C)(C)C)CC4)cn3)c2C(C)C)cn2ncnc12` [Example 371] the same measures were 72.1 nM, 29.4 nM and above 50000 nM.
Regarding `Cc1cc(-c2[nH]nc(-c3ncc(C4CCN(C(C)C(C)C)CC4)cn3)c2C(C)C)cn2ncnc12` (stereo not drawn) [Example 372], the IC50 against human TLR7 is 10.7 nM; at human TLR8 it was 2.49 nM; at human TLR9, 8880 nM.
In the case of `Cc1cc(-c2[nH]nc(-c3ccc(C4CCN(CC(C)(C)C)CC4)cn3)c2C(C)C)cn2ncnc12` [Example 373], the concentration for half-maximal inhibition (IC50) against human TLR7 amounted to 81.9 nM; on human TLR8 it was 34.5 nM; against human TLR9, 42100 nM.
On the same counts, the results for `COc1cc(-c2[nH]nc(-c3ccc(C4CCN(CC5CC5)CC4)cn3)c2C(C)C)cn2ncnc12` [Example 374] are 11.7 nM, 9.33 nM and 41500 nM.
On the same counts, the results for `COc1cc(-c2[nH]nc(-c3ccc(C4CCN(CC5CCOCC5)CC4)cn3)c2C(C)C)cn2ncnc12` [Example 375] are 19.9 nM, 8.4 nM and 35600 nM.
For `COc1cc(-c2[nH]nc(-c3cnc(C4CCN(CC5CCOCC5)CC4)cn3)c2C(C)C)cn2ncnc12` [Example 376] the same measures were 4.54 nM, 2.8 nM and 6300 nM.
With `COc1cc(-c2[nH]nc(-c3cnc(C4CCN(CC5CCC5)CC4)cn3)c2C(C)C)cn2ncnc12` [Example 377], the half-maximal inhibitory concentration (IC50) against human TLR7 was 56.9 nM; on human TLR8, 18.2 nM; against human TLR9, above 50000 nM.
For `COc1cc(-c2[nH]nc(-c3cnc(C4CCN(CC5CC5)CC4)cn3)c2C(C)C)cn2ncnc12` [Example 378] the same measures were 29.4 nM, 12.2 nM and above 50000 nM.
Take `COc1cc(-c2[nH]nc(-c3cnc(C4CCN(CC(C)C)CC4)cn3)c2C(C)C)cn2ncnc12` [Example 379]: the results for the half-maximal inhibitory concentration (IC50) at human TLR7, against human TLR8 and against human TLR9 were 55.7 nM, 22.9 nM and 28000 nM, respectively.
On the same counts, the results for `COc1cc(-c2[nH]nc(-c3cnc(C4CCN(C5CCOCC5)CC4)cn3)c2C(C)C)cn2ncnc12` [Example 380] are 11.5 nM, 5.07 nM and 6520 nM.
For `COc1cc(-c2[nH]nc(-c3cnc(C4CCN(C)CC4)cn3)c2C(C)C)cn2ncnc12` [Example 381] the same measures were 11.1 nM, 9.06 nM and 5880 nM.
On the same counts, the results for `CCN1CCC(c2cnc(-c3n[nH]c(-c4cc(OC)c5ncnn5c4)c3C(C)C)cn2)CC1` [Example 382] are 2.32 nM, 2.33 nM and 9860 nM.
Regarding `CCCN1CCC(c2cnc(-c3n[nH]c(-c4cc(OC)c5ncnn5c4)c3C(C)C)cn2)CC1` [Example 383], the IC50 against human TLR7 worked out at 17.5 nM; against human TLR8 it was 3.51 nM; at human TLR9 it was 47000 nM.
Regarding `COc1cc(-c2[nH]nc(-c3cnc(C4CCN(C(C)C)CC4)cn3)c2C(C)C)cn2ncnc12` [Example 384], the half-maximal inhibitory concentration (IC50) on human TLR7 was 39.5 nM; at human TLR8, 20.1 nM; at human TLR9, above 50000 nM.
On the same counts, the results for `COc1cc(-c2[nH]nc(-c3cnc(C4CCN(C5COC5)CC4)cn3)c2C(C)C)cn2ncnc12` [Example 385] are 58.8 nM, 31.4 nM and above 50000 nM.
`CCC(CC)N1CCC(c2cnc(-c3n[nH]c(-c4cc(OC)c5ncnn5c4)c3C(C)C)cn2)CC1` [Example 386]: the IC50 at human TLR7 is 10.3 nM; against human TLR8 it was 3.56 nM; against human TLR9 it was 9560 nM.
